In experiment [1] the target is T1, NCAPG (Homo sapiens, UniProt Q9BPX3).
T1 construct: ystrep (Strep tag); made in house; host or cells: Sf9 insect cells (baculovirus)
As to the kind of experiment: Fluorescence polarisation binding assay of 5-FAM peptides with NCAPG. The following applies: FP, 100 nM 5-FAM peptide; Kd not fit. How it is done: (§1) Fluorescence polarisation binding assays were performed by mixing 100 nM of 5-FAM labelled peptide (Reagents and Tools Table) with indicated concentration of protein in FP buffer (20 mM HEPES pH 8, 150 mM KCl, 2.5 mM MgCl, 5% glycerol, 1 mM DTT) and incubated at room temperature for 15 min before reading the plate with a POLARstar Omega plate reader (BMG). The plate was read three times at 5 min intervals to ensure samples reached equilibrium and three technical replicates were performed, setting up a new plate, with distinct protein aliquot in each case. Data was analysed and plotted in Graphpad Prism and Kd fit using the following: FP=FPmax/2[Pep]([C]+[Pep]+Kd)−([C]+[Pep]+Kd)^2−4.[C].[Pep] Where [C] and [Pep] are the concentration, in μM, of condensin and 5-FAM labelled peptide respectively, FPmax the maximum change in fluorescence polarisation in mP and Kd is the equilibrium dissociation constant. Fit curves are plotted, with standard deviation.
For orientation: Polarisation of emitted light reports the rotation of a fluorescent probe.

The test system of experiment [2] is CI NdelH, D2delC. As to the kind of experiment: Fluorescence polarisation competition assay, 5-FAM NCAPH peptide and CI NdelH, D2delC. The following applies: 100 nM 5-FAM-NCAPH55-77 with 4 μM CID2ΔC,NΔH. It is filed as binding, human. How it is done:
FP competition assays were performed for NCAPD2 peptide, using a fixed concentration of 100 nM of F-NCAPD2-C1376-1398 and 6 μM of NCAPG, in the presence or absence of 10 μM KIF4A WT1206-1228 or KIF4A Mut1206-1228 peptide. Similar assays were performed for NCAPH2 peptide, using a fixed concentration of 100 nM of F-N-NCAPH55-77 and 4 μM CI NdelH, D2delC, in the presence or absence of 100 μM of KIF4A WT1206-1228 or KIF4A Mut1206-1228 peptide.
(§2) Background was determined by measuring 100 nM of F-NCAPD2-C1376-1398 or F-N-NCAPH55-77 in the presence of peptide buffer (20 mM HEPES pH 8), KIF4A WT1206-1228 or KIF4A Mut1206-1228 peptide, and subtracted from each measurement. Assay was performed with three technical repeats, setting up a new plate with distinct protein aliquot each time, reading the plate three times to ensure equilibrium. Data analysed and plotted using GraphPad Prism.

Experiment [3] addresses T2, CID2ΔC (condensin I lacking NCAPD2 C-terminal region) (Homo sapiens, UniProt Q9BPX3).
T2 construct: made in house; host or cells: Sf9 insect cells (baculovirus)
As to the kind of experiment: Fluorescence polarisation binding assay of 5-FAM peptides with CID2ΔC. The following applies: FP, 100 nM 5-FAM peptide titrated with CID2ΔC, three technical replicates, ± standard error. As for the experimental part: as §1

For experiment [4], the system named is condensin I. As to the kind of experiment: ATPase activity assay (EnzCheck phosphate assay), basal. It counts as biochemical, human. As for the experimental part: ATPase assays were performed based on the method described previously (Voulgaris and Gligoris, [2019]) using the EnzCheck phosphate assay kit (Invitrogen). Condensin I complexes were used at a final concentration of 50 nM, while HAWK subunits were used at 100 nM and peptides were used at 50 μM. Basal ATPase assays were performed with final salt concentration of 100 mM KCl. DNA titrations were performed with 50 bp dsDNA annealed by heating to 98 degrees and slowly cooling in annealing buffer (10 mM Tris pH 7.5, 50 mM NaCl, 1 mM EDTA).
Plate was read with a POLARstar Omega plate reader (BMG).

Experiment [5] addresses T1, NCAPG. Description: Fluorescence polarisation competition assay, 5-FAM NCAPD2 peptide and NCAPG. It counts as binding. To be noted: 100 nM 5-FAM-NCAPD2_1376-1398, 10 μM competing peptide, mean ± SD. As for the experimental part:
[…] Similar assays were performed for NCAPH2 peptide, using a fixed concentration of 100 nM of F-N-NCAPH55-77 and 4 μM CI NdelH, D2delC, in the presence or absence of 100 μM of KIF4A WT1206-1228 or KIF4A Mut1206-1228 peptide.
as §2

Residues, ends and D or L forms follow the SMILES beside them. No end group written: not given here. *: point of attachment. 5FAM = O=C1OC2(c3ccc(O)cc3Oc3cc(O)ccc32)c2ccc(C(=O)*)cc21; 5‑FAM = 5-carboxyfluorescein label

In the case of “5-FAM-FPQNDDEKERLQRRRSRVFDLQF ({5‑FAM}-FPQNDDEKERLQRRRSRVFDLQF) [5-FAM-NCAPH55–77, 5-FAM labelled peptide of NCAPH residues 55-77]”, in experiment [1], the “binding to NCAPG” value is reported as “low affinity”. The “FP signal without competitor” value in experiment [2] is given as 37 ± 7 mP; in experiment [2] (listed as NCAPH peptide), ~ 35 mP.
The Kd is the constant that tells how readily two partners part at equilibrium. A low value points to a tighter complex. Regarding `CC[C@H](C)[C@H](NC(=O)[C@@H]1CCCN1C(=O)[C@H](CO)NC(=O)[C@H](CS)NC(=O)CNC(=O)[C@H](CO)NC(=O)[C@H](Cc1ccccc1)NC(=O)[C@H](Cc1ccccc1)NC(=O)[C@H](CO)NC(=O)[C@@H](NC(=O)[C@H](CC(N)=O)NC(=O)[C@H](CO)NC(=O)[C@H](C)NC(=O)[C@H](CC(C)C)NC(=O)[C@H](C)NC(=O)[C@H](CCCNC(=N)N)NC(=O)[C@H](CCCCN)NC(=O)[C@H](CCCCN)NC(=O)[C@H](CCCCN)NC(=O)[C@H](CCCCN)NC(=O)CNC(=O)[C@@H]1CCCN1C(=O)c1ccc2c(c1)C(=O)OC21c2ccc(O)cc2Oc2cc(O)ccc21)[C@@H](C)O)C(=O)N[C@@H](CCC(=O)O)C(=O)O` [5-FAM-KIF4A1206–1228] (5FAM-PGKKKKRALASNTSFFSGCSPIE-OH), the Kd in experiment [3] is 2.8 ± 0.2 µM.
With “KIF4Amut peptide (PGKKAAAAGAAATSFFSGCSPIE)”, the Fit rates was 10.29 ATPase per molecule, per minute in experiment [4] (CI D2delC + peptide, replicate 1); 11.11 ATPase per molecule, per minute in experiment [4] (CI D2delC + peptide, replicate 2); 10.2 ATPase per molecule, per minute in experiment [4] (CI D2delC + peptide, replicate 3); 15.62 ATPase per molecule, per minute in experiment [4] (CI D2delC + peptide, replicate 4); 27.72 ATPase per molecule, per minute in experiment [4] (CI D2delC + peptide, replicate 5); 29.41 ATPase per molecule, per minute in experiment [4] (CI NdelH + peptide, replicate 1). The Fit rates is 35.68 ATPase per molecule, per minute in experiment [4] (CI NdelH + peptide, replicate 2); 31.03 ATPase per molecule, per minute in experiment [4] (CI NdelH + peptide, replicate 3); 28.18 ATPase per molecule, per minute in experiment [4] (CI NdelH D2delC + peptide, replicate 1); 29.84 ATPase per molecule, per minute in experiment [4] (CI NdelH D2delC + peptide, replicate 2); 39.65 ATPase per molecule, per minute in experiment [4] (CI NdelH D2delC + peptide, replicate 3); 10.26 ATPase per molecule, per minute in experiment [4] (CIWT + peptide, replicate 1). Moreover, the Fit rates is recorded as 7.215 ATPase per molecule, per minute in experiment [4] (CIWT + peptide, replicate 2); 8.551 ATPase per molecule, per minute in experiment [4] (CIWT + peptide, replicate 3); 10.06 ATPase per molecule, per minute in experiment [4] (CIWT + peptide, replicate 4); 14.77 ATPase per molecule, per minute in experiment [4] (CIWT + peptide, replicate 5); 10.26 ATPase per molecule, per minute in experiment [4] (CIWT + peptide, replicate 6).
With PGKKAAAAGAAATSFFSGCSPIE [KIF4A mut], the “effect of peptide on ATPase activity of CI” value in experiment [4] (50 nM CI, 50 μM peptide, 3 repeats) was “no increase in activity”. For the same compound, the “FP signal on addition of competing peptide” value in experiment [5] was “not significantly changed”.
